{"source": "patent US20260217701A1", "about": "“SELECTIVE BET INHIBITORS AND USES THEREOF” (Tay Therapeutics Limited, priority 2022, published 2026)", "test_system": "imiquimod-induced psoriasis", "assay": "Imiquimod-induced psoriasis model", "format": "in vivo, mice", "conditions": "for Mean scores of the presence of peeling on the skin of animals at the area of induction of psoriasis / Mean scores of the presence of erythema on the skin of animals at the area of induction of psoriasis / Mean scores of the presence of induration on the skin of animals at the area of induction of psoriasis: mean ± SEM; for Mean PASI Scores in IMI-Psoriasis Model: mice", "outline": "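Mice given topical imiquimod (5% cream) daily on depilated backs Days 1–14; Compound A in 5% DMSO/40% PEG-400/55% saline from Day 8, clobetasol topical as reference. Daily PASI (erythema, induration, peeling, each 0–4, summed) Days 8–15; spleen weight, open-field behaviour, serum IL-1B, IL-6, IL-17, TNF-α, IL-22, IL-23 at Day 15.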", "key": {"[1]": {"conditions": "IMI + 10 mg/kg, D8 (before start of treatment)"}}, "data": [{"molecule": "COCCn1cc(-c2ccccc2)c(-c2cn(C)c(=O)c3[nH]c(-c4cnn(C(F)(F)F)c4)cc23)cc1=O", "note": "[Compound B, 4-(1-(2-methoxyethyl)-2-oxo-5-phenyl-1,2-dihydropyridin-4-yl)-6-methyl-2-(1-(trifluoromethyl)-1H-pyrazol-4-yl)-1,6-dihydro-7H-pyrrolo[2,3-c]pyridin-7-one]", "values": [{"measurement": "Mean scores of the presence of peeling on the skin of animals at the area of induction of psoriasis", "setting": "IMI + 3 mg/kg, D15", "value": "1.3 ± 0.3"}, {"measurement": "Mean scores of the presence of erythema on the skin of animals at the area of induction of psoriasis", "setting": "[1]", "value": "2.1 ± 0.1"}, {"measurement": "Mean scores of the presence of induration on the skin of animals at the area of induction of psoriasis", "setting": "[1]", "value": "2.8 ± 0.2"}, {"measurement": "Mean scores of the presence of peeling on the skin of animals at the area of induction of psoriasis", "setting": "[1]", "value": "2.4 ± 0.3"}, {"measurement": "Mean scores of the presence of erythema on the skin of animals at the area of induction of psoriasis", "setting": "IMI + 10 mg/kg, D9", "value": "1.5 ± 0.2"}, {"measurement": "Mean scores of the presence of induration on the skin of animals at the area of induction of psoriasis", "setting": "IMI + 10 mg/kg, D9", "value": "2.0 ± 0.2"}, {"measurement": "Mean scores of the presence of peeling on the skin of animals at the area of induction of psoriasis", "setting": "IMI + 10 mg/kg, D9", "value": "2.1 ± 0.2"}, {"measurement": "Mean scores of the presence of erythema on the skin of animals at the area of induction of psoriasis", "setting": "IMI + 10 mg/kg, D10", "value": "1.8 ± 0.2"}, {"measurement": "Mean scores of the presence of induration on the skin of animals at the area of induction of psoriasis", "setting": "IMI + 10 mg/kg, D10", "value": "2.1 ± 0.2"}, {"measurement": "Mean scores of the presence of peeling on the skin of animals at the area of induction of psoriasis", "setting": "IMI + 10 mg/kg, D10", "value": "2.0 ± 0.3"}, {"measurement": "Mean scores of the presence of erythema on the skin of animals at the area of induction of psoriasis", "setting": "IMI + 10 mg/kg, D11", "value": "1.5 ± 0.2"}, {"measurement": "Mean scores of the presence of induration on the skin of animals at the area of induction of psoriasis", "setting": "IMI + 10 mg/kg, D11", "value": "1.5 ± 0.2"}, {"measurement": "Mean scores of the presence of peeling on the skin of animals at the area of induction of psoriasis", "setting": "IMI + 10 mg/kg, D11", "value": "1.9 ± 0.1"}, {"measurement": "Mean scores of the presence of erythema on the skin of animals at the area of induction of psoriasis", "setting": "IMI + 10 mg/kg, D12", "value": "0.9 ± 0.3"}, {"measurement": "Mean scores of the presence of induration on the skin of animals at the area of induction of psoriasis", "setting": "IMI + 10 mg/kg, D12", "value": "1.1 ± 0.1"}, {"measurement": "Mean scores of the presence of peeling on the skin of animals at the area of induction of psoriasis", "setting": "IMI + 10 mg/kg, D12", "value": "1.0 ± 0.2"}, {"measurement": "Mean scores of the presence of erythema on the skin of animals at the area of induction of psoriasis", "setting": "IMI + 10 mg/kg, D13", "value": "0.6 ± 0.3"}, {"measurement": "Mean scores of the presence of induration on the skin of animals at the area of induction of psoriasis", "setting": "IMI + 10 mg/kg, D13", "value": "1.0 ± 0.0"}, {"measurement": "Mean scores of the presence of peeling on the skin of animals at the area of induction of psoriasis", "setting": "IMI + 10 mg/kg, D13", "value": "0.4 ± 0.2"}, {"measurement": "Mean scores of the presence of erythema on the skin of animals at the area of induction of psoriasis", "setting": "IMI + 10 mg/kg, D14", "value": "0.1 ± 0.1"}, {"measurement": "Mean scores of the presence of induration on the skin of animals at the area of induction of psoriasis", "setting": "IMI + 10 mg/kg, D14", "value": "0.6 ± 0.2"}, {"measurement": "Mean scores of the presence of peeling on the skin of animals at the area of induction of psoriasis", "setting": "IMI + 10 mg/kg, D14", "value": "0.5 ± 0.2"}, {"measurement": "Mean scores of the presence of erythema on the skin of animals at the area of induction of psoriasis", "setting": "IMI + 10 mg/kg, D15", "value": "0.1 ± 0.1"}, {"measurement": "Mean scores of the presence of induration on the skin of animals at the area of induction of psoriasis", "setting": "IMI + 10 mg/kg, D15", "value": "0.4 ± 0.2"}, {"measurement": "Mean scores of the presence of peeling on the skin of animals at the area of induction of psoriasis", "setting": "IMI + 10 mg/kg, D15", "value": "0.4 ± 0.2"}, {"measurement": "Mean PASI Scores in IMI-Psoriasis Model", "setting": "IMI + 1 mg/kg, D8 (before start of treatment)", "value": "7.0 ± 0.3"}, {"measurement": "Mean PASI Scores in IMI-Psoriasis Model", "setting": "IMI + 1 mg/kg, D9", "value": "6.8 ± 0.6"}, {"measurement": "Mean PASI Scores in IMI-Psoriasis Model", "setting": "IMI + 1 mg/kg, D10", "value": "6.0 ± 0.3"}, {"measurement": "Mean PASI Scores in IMI-Psoriasis Model", "setting": "IMI + 1 mg/kg, D11", "value": "6.5 ± 0.5"}, {"measurement": "Mean PASI Scores in IMI-Psoriasis Model", "setting": "IMI + 1 mg/kg, D12", "value": "5.6 ± 0.3"}, {"measurement": "Mean PASI Scores in IMI-Psoriasis Model", "setting": "IMI + 1 mg/kg, D13", "value": "5.6 ± 0.5"}, {"measurement": "Mean PASI Scores in IMI-Psoriasis Model", "setting": "IMI + 1 mg/kg, D14", "value": "5.6 ± 0.4"}, {"measurement": "Mean PASI Scores in IMI-Psoriasis Model", "setting": "IMI + 1 mg/kg, D15", "value": "5.1 ± 0.4"}, {"measurement": "Mean PASI Scores in IMI-Psoriasis Model", "setting": "IMI + 3 mg/kg, D8 (before start of treatment)", "value": "7.4 ± 0.3"}, {"measurement": "Mean PASI Scores in IMI-Psoriasis Model", "setting": "IMI + 3 mg/kg, D9", "value": "6.0 ± 0.4"}, {"measurement": "Mean PASI Scores in IMI-Psoriasis Model", "setting": "IMI + 3 mg/kg, D10", "value": "5.8 ± 0.4"}, {"measurement": "Mean PASI Scores in IMI-Psoriasis Model", "setting": "IMI + 3 mg/kg, D11", "value": "5.4 ± 0.3"}, {"measurement": "Mean PASI Scores in IMI-Psoriasis Model", "setting": "IMI + 3 mg/kg, D12", "value": "5.4 ± 0.3"}, {"measurement": "Mean PASI Scores in IMI-Psoriasis Model", "setting": "IMI + 3 mg/kg, D13", "value": "5.0 ± 0.4"}, {"measurement": "Mean PASI Scores in IMI-Psoriasis Model", "setting": "IMI + 3 mg/kg, D14", "value": "4.6 ± 0.4"}, {"measurement": "Mean PASI Scores in IMI-Psoriasis Model", "setting": "IMI + 3 mg/kg, D15", "value": "3.5 ± 0.5"}, {"measurement": "Mean PASI Scores in IMI-Psoriasis Model", "setting": "[1]", "value": "7.3 ± 0.4"}, {"measurement": "Mean PASI Scores in IMI-Psoriasis Model", "setting": "IMI + 10 mg/kg, D9", "value": "5.6 ± 0.4"}, {"measurement": "Mean PASI Scores in IMI-Psoriasis Model", "setting": "IMI + 10 mg/kg, D10", "value": "5.9 ± 0.5"}, {"measurement": "Mean PASI Scores in IMI-Psoriasis Model", "setting": "IMI + 10 mg/kg, D11", "value": "4.9 ± 0.3"}, {"measurement": "Mean PASI Scores in IMI-Psoriasis Model", "setting": "IMI + 10 mg/kg, D12", "value": "3.1 ± 0.5"}, {"measurement": "Mean PASI Scores in IMI-Psoriasis Model", "setting": "IMI + 10 mg/kg, D13", "value": "2.0 ± 0.4"}, {"measurement": "Mean PASI Scores in IMI-Psoriasis Model", "setting": "IMI + 10 mg/kg, D14", "value": "1.3 ± 0.3"}, {"measurement": "Mean PASI Scores in IMI-Psoriasis Model", "setting": "IMI + 10 mg/kg, D15", "value": "0.9 ± 0.4"}, {"measurement": "erythema, induration and peeling of the skin at the area of induction", "setting": "mouse, in vivo", "value": "significantly reduced"}, {"measurement": "use of enrichment (nesting)", "setting": "relative to vehicle-treated psoriasis animals", "value": "similarly restored use of nesting"}]}]}
